Patent US20230329283A1 (priority 2021, published 2023)

Experiments:
[1] = system: colon bacillus (Escherichia coli); format: cell-based
salmonella [2] = format: cell-based
Clostridium perfringens [3] = format: cell-based; details: 16 hours at 37° C., 105 CFU/mL, minimum concentration making the hole clear
salmonella [4] = experiment: Minimum bactericidal concentration (MBC); format: cell-based; details: concentration inhibiting growth of 99.9% bacteria, 16h culture on solid medium
Clostridium perfringens [5] = format: cell-based; details: concentration inhibiting growth of 99.9% bacteria, 16h culture on solid medium
[6] = system: Four indicator bacteria (Escherichia coli, Salmonella, Staphylococcus aureus and Clostridium perfringens); format: cell-based; details: FIG. 4
[7] = system: four bacterial suspensions (Escherichia coli, Salmonella, Staphylococcus aureus and Clostridium perfringens); format: cell-based; details: pepsin 3000 U/mL, pH 2.0, 37° C., 30-180 min, FIG. 5A
[8] = system: four bacterial suspensions (Escherichia coli, Salmonella, Staphylococcus aureus and Clostridium perfringens); format: cell-based; details: trypsin 250U/mL, pH 8.0, 37° C., 30-180 min, TrSub at MIC, FIG. 5B
[9] = system: Escherichia coli, Salmonella, Staphylococcus aureus and Clostridium perfringens; format: cell-based; details: on Escherichia coli
[10] = system: colon bacillus (Escherichia coli); details: concentration inhibiting growth of 99.9% bacteria, 16h culture on solid medium

TrSub (EFGAGKAQCAAAWLQCASGGTLGCGGGAVACQNYRQFQCRAA; the amino acid sequence of the recombinant antimicrobial peptide TrSub)
MIC Gram-negative bacteria colon bacillus [1]: 37.5 mg/L | MIC Gram-negative bacteria salmonella (salmonella [2]): 37.5 mg/L | MIC Gram-positive bacteria Clostridium perfringens (Clostridium perfringens [3]): 25 mg/L | MBC Gram-negative bacteria salmonella (salmonella [4]): 75 mg/L | MBC Gram-positive bacteria Clostridium perfringens (Clostridium perfringens [5]): 25 mg/L | change in the inhibition rate of each bacterium after heat treatment ([6]; boiling water for 20 min): almost no change | inhibition rate after heat treatment ([6]; boiling water, 25 min treatment): about 80% | inhibition rate to various bacteria after being treated by pepsin ([7]; TrSub at MIC): above 80% | stability to pepsin [7]: good stability | stability to trypsin [8]: poor | inhibition rate of the two Gram-positive bacteria after trypsin treatment ([8]; Gram-positive bacteria): about 80% | antibacterial activity of the expression product [9]: inhibitory effect | MBC Gram-negative bacteria colon bacillus [10]: 37.5 mg/L
